Data as given in patent US20060240095A1, “Pharmaceutical composition comprising a combination of metformin and a statin” (priority 2003, published 2006).
Like-named read-outs stand apart in the source and are kept apart here.

What was measured:
[1] = cited from earlier work
[2] = cited from earlier work; remark: listed apart in the source
[3] = test system: Zucker obese (fa/fa) rats; conditions: serum, lovastatin 1 mg/kg/day and/or metformin 50 mg/kg twice a day p.o.
[4] = test system: C57BL/Ks J Rj-db (db/db) mice; assay: Serum biomarkers in male db/db mice, simvastatin, metformin and combination per os for 5 days; format: in vivo, mouse; conditions: oral once daily
Procedure: Male 12 weeks old C57BL/Ks J Rj-db (db/db) mice (Janvier, France), weighing in the target range of 30 to 50 g, were used in the study. They were housed 5 per cage in a temperature (19.5-24.5° C.) and relative humidity (45-65%) controlled room with a 12-h light/dark cycle, with ad libitum access to filtered tap-water and irradiated pelleted laboratory chow (ref. A04, SAFE, France) throughout the study. After acclimatization, they were randomized into groups of 10 according to homogeneous glycaemia:
Group 2: Metformin 150 mg/kg
The mice were given the treatment orally once daily for 5 consecutive days at constant time.

ZUCKER fa/fa rats = assay: Serum biomarkers in Zucker obese (fa/fa) rats, simvastatin, metformin and combination per os for 5 days; conditions: oral
[5] = pH of 7.0; cited from earlier work
[6] = water (distilled water for atorvastatin), in words
[7] = T0 (three days before beginning of treatment)
[8] = T5 (five days after beginning of treatment)
[9] = T0 (three days before treatment), metformin 150 mg/kg and/or simvastatin 30 mg/kg
[10] = T5 (five days after beginning of treatment), metformin 150 mg/kg and/or simvastatin 30 mg/kg
[11] = T0 (three days before treatment), simvastatin 0.5 mg/kg and/or metformin 50 mg/kg twice a day
[12] = T5 (five days after beginning of treatment), simvastatin 0.5 mg/kg and/or metformin 50 mg/kg twice a day
[13] = T0 (three days before treatment), simvastatin 300 mg/kg alone or with metformin 150 mg/kg
[14] = T0 (three days before treatment), simvastatin alone or with metformin 150 mg/kg
[15] = T5 (five days after beginning of treatment), simvastatin 300 mg/kg alone or with metformin 150 mg/kg
[16] = T5 (five days after beginning of treatment), simvastatin alone or with metformin 150 mg/kg
[17] = T0 (three days before treatment), simvastatin 1 mg/kg alone or with metformin 50 mg/kg twice a day
[18] = T5 (five days after beginning of treatment), simvastatin 1 mg/kg alone or with metformin 50 mg/kg twice a day

For `COCc1c(C(C)C)nc(C(C)C)c(/C=C/[C@@H](O)C[C@@H](O)CC(=O)O)c1-c1ccc(F)cc1` [Cerivastatin], the “effect of food on absorption” value ([1]; oral administration with food) is given as “not sensitive to a food effect” and the solubility in water [2, 6] is given as “soluble”.
For `CC(C)n1c(/C=C/C(O)CC(O)CC(=O)O)c(-c2ccc(F)cc2)c2ccccc21` (stereo not drawn) [Fluvastatin], the “time to peak concentrations” value ([1]; following oral administration) is given as “less than 1 hour” and the solubility in water [2, 6] is given as “soluble”.
In the case of `CC[C@H](C)C(=O)O[C@H]1C[C@@H](C)C=C2C=C[C@H](C)[C@H](CC[C@@H]3C[C@@H](O)CC(=O)O3)[C@H]21` [Lovastatin], the solubility in water [2, 6] is listed as “insoluble”, the Glucose [3, 7] is listed as 7.88 mM and the “HDL C” value [3, 7] is listed as 2.00 mM. The Insulin [3, 7] was 0.35 nM, the “Total Cholesterol” value [3, 7] was 2.38 mM and the Triglycerides [3, 7] was 4.18 mM. For the same compound, the Glucose [3, 8] was 8.21 mM, the “HDL C” value [3, 8] was 2.16 mM and the Insulin [3, 8] was 0.39 nM. The “Total Cholesterol” value [3, 8] was 2.54 mM and the Triglycerides [3, 8] was 4.79 mM.
`CN(C)C(=N)N=C(N)N` [Metformin] showed a Glucose [4, 9] of 37.00 mM, an Insulin [4, 9] of 4.60 nM and an NEFA [4, 9] of 0.654 mM. For the same compound, the “Total Cholesterol” value [4, 9] was 3.07 mM, the Triglycerides [4, 9] was 1.30 mM and the Glucose [4, 10] was 23.03 mM. The Insulin [4, 10] was 2.82 nM, the NEFA [4, 10] was 0.798 mM and the “Total Cholesterol” value [4, 10] was 3.63 mM. For the same compound, the Triglycerides [4, 10] was 1.34 mM, the Glucose [3, 7] was 8.27 mM and the “HDL C” value [3, 7] was 2.08 mM. For the same compound, the Insulin [3, 7] was 0.34 nM, the “Total Cholesterol” value [3, 7] was 2.55 mM and the Triglycerides [3, 7] was 4.08 mM. For the same compound, the Glucose [3, 8] was 7.73 mM, the “HDL C” value [3, 8] was 2.25 mM and the Insulin [3, 8] was 0.38 nM. For the same compound, the “Total Cholesterol” value [3, 8] was 2.72 mM, the Triglycerides [3, 8] was 5.17 mM and the Glucose (ZUCKER fa/fa rats; [11]) was 6.69 mM. The “HDL C” value (ZUCKER fa/fa rats; [11]) was 2.30 mM, the Insulin (ZUCKER fa/fa rats; [11]) was 0.63 nM and the “Total Cholesterol” value (ZUCKER fa/fa rats; [11]) was 2.47 mM. The Triglycerides (ZUCKER fa/fa rats; [11]) was 4.18 mM, the Glucose (ZUCKER fa/fa rats; [12]) was 9.23 mM and the “HDL C” value (ZUCKER fa/fa rats; [12]) was 2.16 mM. For the same compound, the Insulin (ZUCKER fa/fa rats; [12]) was 0.71 nM, the “Total Cholesterol” value (ZUCKER fa/fa rats; [12]) was 2.32 mM and the Triglycerides (ZUCKER fa/fa rats; [12]) was 5.12 mM.
In the case of `CC[C@H](C)C(=O)O[C@H]1C[C@H](O)C=C2C=C[C@H](C)[C@H](CC[C@@H](O)C[C@@H](O)CC(=O)O)[C@H]21` [Pravastatin], the solubility in water ([2]; methanol and water) is given as over 300 mg/mL and the “partition coefficient (octanol/water)” value [5] is given as 0.59.
Compound `CCC(C)(C)C(=O)O[C@H]1C[C@@H](C)C=C2C=C[C@H](C)[C@H](CC[C@@H]3C[C@@H](O)CC(=O)O3)[C@H]21` [Simvastatin] has a Glucose [4, 9] of 36.27 mM, an Insulin [4, 9] of 4.60 nM and an NEFA [4, 9] of 0.646 mM. The “Total Cholesterol” value [4, 9] was 2.96 mM, the Triglycerides [4, 9] was 1.34 mM and the Glucose [4, 13] was 36.91 mM. For the same compound, the “Total Cholesterol” value [4, 13] was 2.95 mM, the Insulin [4, 14] was 4.86 nM and the NEFA [4, 14] was 0.639 mM. The Triglycerides [4, 14] was 1.44 mM, the Glucose [4, 10] was 25.95 mM and the Insulin [4, 10] was 2.74 nM. For the same compound, the NEFA [4, 10] was 0.897 mM, the “Total Cholesterol” value [4, 10] was 3.33 mM and the Triglycerides [4, 10] was 1.49 mM. The Glucose [4, 15] was 21.18 mM, the “Total Cholesterol” value [4, 15] was 2.87 mM and the Insulin [4, 16] was 2.37 nM. The NEFA [4, 16] was 0.785 mM, the Triglycerides [4, 16] was 0.78 mM and the Glucose (ZUCKER fa/fa rats; [11]) was 6.63 mM. For the same compound, the “HDL C” value (ZUCKER fa/fa rats; [11]) was 2.32 mM, the Insulin (ZUCKER fa/fa rats; [11]) was 0.55 nM and the “Total Cholesterol” value (ZUCKER fa/fa rats; [11]) was 2.46 mM. For the same compound, the Triglycerides (ZUCKER fa/fa rats; [11]) was 4.61 mM, the Glucose (ZUCKER fa/fa rats; [17]) was 7.08 mM and the “HDL C” value (ZUCKER fa/fa rats; [17]) was 2.34 mM. For the same compound, the Insulin (ZUCKER fa/fa rats; [17]) was 0.63 nM, the “Total Cholesterol” value (ZUCKER fa/fa rats; [17]) was 2.48 mM and the Triglycerides (ZUCKER fa/fa rats; [17]) was 4.67 mM. The Glucose (ZUCKER fa/fa rats; [12]) was 9.44 mM, the “HDL C” value (ZUCKER fa/fa rats; [12]) was 2.32 mM and the Insulin (ZUCKER fa/fa rats; [12]) was 0.76 nM. The “Total Cholesterol” value (ZUCKER fa/fa rats; [12]) was 2.46 mM, the Triglycerides (ZUCKER fa/fa rats; [12]) was 5.23 mM and the Glucose (ZUCKER fa/fa rats; [18]) was 8.35 mM. The “HDL C” value (ZUCKER fa/fa rats; [18]) was 2.43 mM, the Insulin (ZUCKER fa/fa rats; [18]) was 0.67 nM and the “Total Cholesterol” value (ZUCKER fa/fa rats; [18]) was 2.60 mM. It also gave a Triglycerides (ZUCKER fa/fa rats; [18]) of 5.89 mM.
